Legend:
rodent = settings: classification of the substance (C+/C−); cited from earlier work
liver = settings: classification of the substance (Cr+/Cr−); cited from earlier work
[1] = classification of the substance (M+/M−); cited from earlier work
[2] = test system: mRNA expressed from the genes (A) to (D) in rat liver; assay: Behavior of genes (mRNA expression level, oligo-DNA microarray) in rat liver after 28-day oral administration; type: in vivo; settings: mRNA vs vehicle control group; for Behavior of gene caused by administration of chemical substance, Gene No. 4846 / Behavior of gene caused by administration of chemical substance, Gene No. 2026 / Behavior of gene caused by administration of chemical substance, Gene No. 4218 / Behavior of gene caused by administration of chemical substance, Gene No. 6182 / Behavior of gene caused by administration of chemical substance, Gene No. 5600: gene group (A); for Behavior of gene caused by administration of chemical substance, Gene No. 4846: Unigene No. Rn.144554; for Behavior of gene caused by administration of chemical substance, Gene No. 2026 / Behavior of gene caused by administration of chemical substance, Gene No. 4218: Unigene No. Rn.167075; for Behavior of gene caused by administration of chemical substance, Gene No. 6182: Unigene No. Rn.5834; for Behavior of gene caused by administration of chemical substance, Gene No. 5600: Unigene No. Rn.9836; for Behavior of gene caused by administration of chemical substance, Gene No. 1494 / Behavior of gene caused by administration of chemical substance, Gene No. 2045 / Behavior of gene caused by administration of chemical substance, Gene No. 2203: gene group (B); for Behavior of gene caused by administration of chemical substance, Gene No. 1494: Unigene No. Rn.1430; for Behavior of gene caused by administration of chemical substance, Gene No. 2045: Unigene No. Rn.19329; for Behavior of gene caused by administration of chemical substance, Gene No. 2203: Unigene No. Rn.21240; for Behavior of gene caused by administration of chemical substance, Gene No. 533 / Behavior of gene caused by administration of chemical substance, Gene No. 725 / Behavior of gene caused by administration of chemical substance, Gene No. 1163 / Behavior of gene caused by administration of chemical substance, Gene No. 4973 / Behavior of gene caused by administration of chemical substance, Gene No. 4095 / Behavior of gene caused by administration of chemical substance, Gene No. 1334 / Behavior of gene caused by administration of chemical substance, Gene No. 6620 / Behavior of gene caused by administration of chemical substance, Gene No. 6303 / Behavior of gene caused by administration of chemical substance, Gene No. 5878 / Behavior of gene caused by administration of chemical substance, Gene No. 1131 / Behavior of gene caused by administration of chemical substance, Gene No. 1562 / Behavior of gene caused by administration of chemical substance, Gene No. 1741 / Behavior of gene caused by administration of chemical substance, Gene No. 893 / Behavior of gene caused by administration of chemical substance, Gene No. 6026 / Behavior of gene caused by administration of chemical substance, Gene No. 154 / Behavior of gene caused by administration of chemical substance, Gene No. 1993 / Behavior of gene caused by administration of chemical substance, Gene No. 813 / Behavior of gene caused by administration of chemical substance, Gene No. 2494 / Behavior of gene caused by administration of chemical substance, Gene No. 2546 / Behavior of gene caused by administration of chemical substance, Gene No. 3776 / Behavior of gene caused by administration of chemical substance, Gene No. 3929 / Behavior of gene caused by administration of chemical substance, Gene No. 1119 / Behavior of gene caused by administration of chemical substance, Gene No. 6742 / Behavior of gene caused by administration of chemical substance, Gene No. 5634: gene group (C); for Behavior of gene caused by administration of chemical substance, Gene No. 533: Unigene No. Rn.106184; for Behavior of gene caused by administration of chemical substance, Gene No. 725: Unigene No. Rn.108075; for Behavior of gene caused by administration of chemical substance, Gene No. 1163: Unigene No. Rn.11766; for Behavior of gene caused by administration of chemical substance, Gene No. 4973: Unigene No. Rn.118529; for Behavior of gene caused by administration of chemical substance, Gene No. 4095: Unigene No. Rn.119024; for Behavior of gene caused by administration of chemical substance, Gene No. 1334 / Behavior of gene caused by administration of chemical substance, Gene No. 6620: Unigene No. Rn.120914; for Behavior of gene caused by administration of chemical substance, Gene No. 6303: Unigene No. Rn.123063; for Behavior of gene caused by administration of chemical substance, Gene No. 5878: Unigene No. Rn.143213; for Behavior of gene caused by administration of chemical substance, Gene No. 1131: Unigene No. Rn.144946; for Behavior of gene caused by administration of chemical substance, Gene No. 1562: Unigene No. Rn.14744; for Behavior of gene caused by administration of chemical substance, Gene No. 1741: Unigene No. Rn.1647; for Behavior of gene caused by administration of chemical substance, Gene No. 893: Unigene No. Rn.164817; for Behavior of gene caused by administration of chemical substance, Gene No. 6026: Unigene No. Rn.167685; for Behavior of gene caused by administration of chemical substance, Gene No. 154: Unigene No. Rn.185941; for Behavior of gene caused by administration of chemical substance, Gene No. 1993: Unigene No. Rn.18728; for Behavior of gene caused by administration of chemical substance, Gene No. 813: Unigene No. Rn.201760; for Behavior of gene caused by administration of chemical substance, Gene No. 2494: Unigene No. Rn.23969; for Behavior of gene caused by administration of chemical substance, Gene No. 2546: Unigene No. Rn.24561; for Behavior of gene caused by administration of chemical substance, Gene No. 3776: Unigene No. Rn.43232; for Behavior of gene caused by administration of chemical substance, Gene No. 3929: Unigene No. Rn.4620; for Behavior of gene caused by administration of chemical substance, Gene No. 1119: Unigene No. Rn.9757; for Behavior of gene caused by administration of chemical substance, Gene No. 6742: Unigene No. Rn.9779; for Behavior of gene caused by administration of chemical substance, Gene No. 5634: Unigene No. Rn.9862; for Behavior of gene caused by administration of chemical substance, Gene No. 5726: gene group (D), Unigene No. Rn.9939
Outline: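 Liver mRNA measured by oligo-DNA microarray after 28 days of once-daily oral gavage in 5-week-old male F344 rats (n=4 per group), with vehicle controls given equal solvent volume. Significance threshold: 1.5-fold up or down versus control, with changes opposite in direction to other carcinogens counted as not significant.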

| Structure (SMILES) | Carcinogenicity (rodent) | Liver carcinogenicity (liver) | Mutagenicity by Ames test [1] | Behavior of gene caused by administration of chemical substance, Gene No. 4846 [2] | Behavior of gene caused by administration of chemical substance, Gene No. 2026 [2] | Behavior of gene caused by administration of chemical substance, Gene No. 4218 [2] | Behavior of gene caused by administration of chemical substance, Gene No. 6182 [2] | Behavior of gene caused by administration of chemical substance, Gene No. 5600 [2] | Behavior of gene caused by administration of chemical substance, Gene No. 1494 [2] | Behavior of gene caused by administration of chemical substance, Gene No. 2045 [2] | Behavior of gene caused by administration of chemical substance, Gene No. 2203 [2] | Behavior of gene caused by administration of chemical substance, Gene No. 533 [2] | Behavior of gene caused by administration of chemical substance, Gene No. 725 [2] | Behavior of gene caused by administration of chemical substance, Gene No. 1163 [2] | Behavior of gene caused by administration of chemical substance, Gene No. 4973 [2] | Behavior of gene caused by administration of chemical substance, Gene No. 4095 [2] | Behavior of gene caused by administration of chemical substance, Gene No. 1334 [2] | Behavior of gene caused by administration of chemical substance, Gene No. 6620 [2] | Behavior of gene caused by administration of chemical substance, Gene No. 6303 [2] | Behavior of gene caused by administration of chemical substance, Gene No. 5878 [2] | other results |
| --- | --- | --- | --- | --- | --- | --- | --- | --- | --- | --- | --- | --- | --- | --- | --- | --- | --- | --- | --- | --- | --- |
| ClC=C(Cl)Cl [TS022, Trichloroethylene] | C+ | Cr− | M− | + | − | − | + | − | + | + | + | − | − | − | − | − | − | − | − | − | Behavior of gene caused by administration of chemical substance, Gene No. 1131 [2]: −; Behavior of gene caused by administration of chemical substance, Gene No. 1562 [2]: −; Behavior of gene caused by administration of chemical substance, Gene No. 1741 [2]: −; Behavior of gene caused by administration of chemical substance, Gene No. 893 [2]: −; Behavior of gene caused by administration of chemical substance, Gene No. 6026 [2]: −; Behavior of gene caused by administration of chemical substance, Gene No. 154 [2]: −; Behavior of gene caused by administration of chemical substance, Gene No. 1993 [2]: −; Behavior of gene caused by administration of chemical substance, Gene No. 813 [2]: −; Behavior of gene caused by administration of chemical substance, Gene No. 2494 [2]: −; Behavior of gene caused by administration of chemical substance, Gene No. 2546 [2]: −; Behavior of gene caused by administration of chemical substance, Gene No. 3776 [2]: −; Behavior of gene caused by administration of chemical substance, Gene No. 3929 [2]: −; Behavior of gene caused by administration of chemical substance, Gene No. 1119 [2]: −; Behavior of gene caused by administration of chemical substance, Gene No. 6742 [2]: +; Behavior of gene caused by administration of chemical substance, Gene No. 5634 [2]: −; Behavior of gene caused by administration of chemical substance, Gene No. 5726 [2]: − |
| COc1ccc(O)c(C(C)(C)C)c1 [TS023, Butylated hydroxyanisole] | C+ | Cr− | M− | − | − | − | − | − | − | − | + | − | + | + | + | + | − | − | − | − | Behavior of gene caused by administration of chemical substance, Gene No. 1131 [2]: −; Behavior of gene caused by administration of chemical substance, Gene No. 1562 [2]: −; Behavior of gene caused by administration of chemical substance, Gene No. 1741 [2]: −; Behavior of gene caused by administration of chemical substance, Gene No. 893 [2]: −; Behavior of gene caused by administration of chemical substance, Gene No. 6026 [2]: −; Behavior of gene caused by administration of chemical substance, Gene No. 154 [2]: +; Behavior of gene caused by administration of chemical substance, Gene No. 1993 [2]: −; Behavior of gene caused by administration of chemical substance, Gene No. 813 [2]: −; Behavior of gene caused by administration of chemical substance, Gene No. 2494 [2]: −; Behavior of gene caused by administration of chemical substance, Gene No. 2546 [2]: −; Behavior of gene caused by administration of chemical substance, Gene No. 3776 [2]: −; Behavior of gene caused by administration of chemical substance, Gene No. 3929 [2]: −; Behavior of gene caused by administration of chemical substance, Gene No. 1119 [2]: −; Behavior of gene caused by administration of chemical substance, Gene No. 6742 [2]: −; Behavior of gene caused by administration of chemical substance, Gene No. 5634 [2]: −; Behavior of gene caused by administration of chemical substance, Gene No. 5726 [2]: − |

— patent publication US20110039721A1, “METHOD FOR PREDICTION ABOUT CARCINOGENICITY OF SUBSTANCE IN RODENT” (Chemicals Evaluation and Research Institute, priority 2007, published 2011)
